We go through three molecules from patent publication US20110039825A1, “LIGANDS OF ALPHA-ADRENOCEPTORS, DOPAMINE, HISTAMINE, IMIDAZOLINE AND SEROTONIN RECEPTORS AND THEIR USE” (Alla Chem, LLC, priority 2007, published 2011).

Test [1] concerns mice. Description: Mice Training in Morris Water Maze (Scopolamine). The conditions noted are these: unitary introduction of active ingredient. The format is in vivo. As for the experimental part:
Mice Training in Morris Water Maze. A round pool which was filled with water at 20-22° C. was used. A round ceramic platform of 14 cm height was placed in the pool. Animals's behavior was registered with automated computer videosystem in combination with software package of movement analysis Any-maze (Stoelting Co., US). Before testing mice suitable for training were selected. That was done by placing the platform 1 cm above the water level and putting an animal on the platform for 20 seconds. Then the mouse was sunk into the water on the opposite side of the pool, allowed to find the platform and climbed it within 60 seconds, where it was left for additional 20 seconds. After that the mouse was repeatedly immersed into water on the opposite side of the pool and allowed to look for platform. If it failed in finding the platform within 60 seconds the experimentator helped it to find the platform and climb it. If the mice could not find the platform itself in two consecutive attempts it was excluded from experiment.
During the next two days the platform was placed 0.5 centimeter lower the water level. Every day the mice were given four attempts for finding the platform within 60 seconds. The time interval between the attempts was 20 seconds, during which the mice stayed on the platform. Every day before the first attempt mouse was placed on the platform for 20 seconds. The time needed for finding and climbing the platform was registered. The animals were sunk in water in 3 different places on the side of the pool opposite to platform. On each day of two-day testing 35-40 minutes before the beginning of training the mice were injected intraintestinally with physiological solution, Scopolamine or Scopolamine in combination with investigated compound. At least 8 animals were used in each group.
On the third day the platform was removed and each animal was placed one time in the pool for a period of 60 seconds. The time each mouse spent in the area where the platform had been located during the previous days was registered. This time interval was regarded as a measure of effectiveness of training fulfilled during the previous two days. The testing was carried out during the day time in isolated laboratory using “white noise” at level of about 70 decibel above the human hearing threshold.

The target of test [2] is T1, recombinant human 5-HT2C receptor (Homo sapiens, UniProt P28335).
T1 construct: expressed in transfected cells; host or cells: CHO-K1
T1 sequence (P28335 33-458): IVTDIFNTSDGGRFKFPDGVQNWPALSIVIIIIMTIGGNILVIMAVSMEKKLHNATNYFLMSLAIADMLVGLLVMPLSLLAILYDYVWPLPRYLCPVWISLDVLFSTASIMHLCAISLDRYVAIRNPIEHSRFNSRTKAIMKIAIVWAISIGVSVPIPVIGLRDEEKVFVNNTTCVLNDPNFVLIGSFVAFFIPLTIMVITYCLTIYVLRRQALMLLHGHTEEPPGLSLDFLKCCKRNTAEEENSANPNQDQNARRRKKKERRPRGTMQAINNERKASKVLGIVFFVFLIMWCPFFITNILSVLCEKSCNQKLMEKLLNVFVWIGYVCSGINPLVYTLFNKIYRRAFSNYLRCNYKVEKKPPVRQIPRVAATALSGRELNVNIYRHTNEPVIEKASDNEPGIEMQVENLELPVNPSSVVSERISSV
The experiment in a line: radioligand binding to serotonin receptor 5-HT2C ([3H] Mesulergine). An excerpt:
J. Neurochem. 69: 1449-1458, 1997]. […] SB242084 is used as positive control.

Each structure is given as a SMILES string.

On to `Cc1ccc2c(c1)c1c(n2CCc2ccccn2)CCN(C)C1.Cl.Cl` [1.1.2(2-3)•2HCl], for which, in test [1], the “memory disorders caused by Scopolamine in Morris water maze” value is recorded as “decreasing memory disorders coused by Scopalomine”.
Broadly, the inhibition is the relative decrease from the control value, in per cent. `Cc1ccc2c(c1)[C@H]1CN(C)CCC[C@@H]1N2CCc1cccnc1` [1.6.2(10)•3HCl]: the inhibition at 1 µM in test [2] (ligand concentration 1 μM) is 99%.
As usually defined, the IC50 is the concentration that gives 50% inhibition. The term Ki denotes a dissociation constant, usually derived from enzyme kinetics or from competition with a known ligand. For `CN1CCc2c(c3ccccc3n2Cc2ccccc2)C1` [1.9(1)•½NDSA, bis-(5-benzyl-2-methyl-2,3,4,5-tetrahydro-1H-pyrido[4,3-b]indole) naphtalene-1,5-disulfonate], in test [2], the IC50 came out at 13.5 nM, the Ki came to 7.08 nM and the “nH 5-HT2C” value is 0.987.
